Measurements from ChEMBL document CHEMBL1133590, “Study on selectin blocker. 8. Lead discovery of a non-sugar antagonist using a 3D-pharmacophore model” (J Med Chem, 2000).

Target: T1, E-selectin (Mus musculus, UniProt Q00690)
T1 sequence (Q00690 whole entry): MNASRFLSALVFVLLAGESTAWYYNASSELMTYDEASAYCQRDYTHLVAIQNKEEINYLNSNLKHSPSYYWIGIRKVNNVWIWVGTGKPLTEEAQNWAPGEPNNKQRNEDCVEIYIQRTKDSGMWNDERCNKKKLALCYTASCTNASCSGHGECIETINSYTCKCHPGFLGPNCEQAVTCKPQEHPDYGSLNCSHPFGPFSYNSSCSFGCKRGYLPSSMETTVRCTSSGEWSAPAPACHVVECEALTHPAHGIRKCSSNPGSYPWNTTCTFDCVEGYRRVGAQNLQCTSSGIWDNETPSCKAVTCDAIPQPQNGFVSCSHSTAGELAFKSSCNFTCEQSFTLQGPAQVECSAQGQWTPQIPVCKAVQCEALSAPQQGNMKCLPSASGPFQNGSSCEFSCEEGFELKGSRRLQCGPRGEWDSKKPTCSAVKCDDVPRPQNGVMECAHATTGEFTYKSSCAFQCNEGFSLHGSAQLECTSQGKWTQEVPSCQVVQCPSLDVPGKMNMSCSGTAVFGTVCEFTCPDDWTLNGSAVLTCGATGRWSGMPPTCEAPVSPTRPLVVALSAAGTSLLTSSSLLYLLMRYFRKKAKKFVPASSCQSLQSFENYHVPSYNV
Assay: Evaluated for the inhibitory activity against Selectin E

IC50 [µM] | SMILES
> 500 | CCCCCCCCCCCCCCCCCC(=O)Nc1ccc(C(=O)Nc2cc(C(=O)O)ccc2Oc2cc(C(=O)O)cc(C(=O)O)c2)cc1
1200 | CCCCCCCCCCCCCCCCCC(=O)Nc1ccc(C(=O)CC(=O)Nc2cc(C(=O)O)ccc2Oc2cc(C(=O)O)cc(C(=O)O)c2)cc1
580 | CC(=O)N[C@H]1[C@H]([C@H](O)[C@H](O)CO)O[C@@](O[C@H]2[C@@H](O)[C@@H](CO)O[C@@H](O[C@@H]([C@H](O[C@@H]3O[C@@H](C)[C@@H](O)[C@@H](O)[C@@H]3O)[C@H](C=O)NC(C)=O)[C@H](O)CO)[C@@H]2O)(C(=O)O)C[C@@H]1O [SIALYL LEWIS X]

More lines, now with the values behind:

SMILES | IC50 [µM]
CCCCCCCCCCCCCCC(CCCCCCCCCCCCCC)C(=O)N[C@@H](CO[C@@H]1OC(C)[C@@H](O)[C@H](O)C1O)C(=O)N[C@H](CCC(=O)O)C(=O)NC (stereo not given in full) | 13
CCCCCCCCCCCCCCCCCC(=O)Nc1ccc(C(=O)Nc2cc(C(=O)O)ccc2Oc2cccc(C(=O)O)c2)cc1 | 86
